Source: patent US20240150839A1, “METHODS FOR PREDICTING RESPONSIVENESS OF PROSTATE CANCER PATIENTS TO PARP INHIBITORS” (Memorial Sloan Kettering Cancer Center, priority 2019, published 2024)

Legend:
Format in all cases: cell-based, human
[1] = test system: LNCaP-BRCA2-RB1 cells; test: qPCR of EMT transcription factors after androgen (R1881) treatment; conditions: 1 nM R1881, 48 hours in CSS (FIG. 3I)
Method: Scr-CRISPR and BRCA2-CRISPR2 cells were also transfected with non-targeting shRNA (scr-Sh) for control of shRNA. GAPDH served as the loading control. […] Nuclei were stained with DAPI (blue). […] Control cells were transfected with empty vector. […] GAPDH served as the loading control. […] LNCaP cells were used as control. GAPDH served as the loading control. […] Nuclei were stained with DAPI (blue). […] Equivalent volume of DMSO was used as placebo treatment. Cell growth was measured by MTT assay; SD, P-values determined by Student's t-test. […] LNCaP-BRCA2-RB1 or control cells were incubated in charcoal-stripped medium (CSS) for 24 hours followed by treatment with 1 nM R1881 for another 48 hours (in CSS). […] Expression of the indicated genes normalized with untreated control and GAPDH. […] Scrambled-SMARTpool siRNA transfected LNCaP cells were used as control. 2.5×10^3 indicated cells (72 hours after indicated siRNA transfection) were plated on the top of Boyden chamber in serum-free media; 10% serum in the bottom chamber was used as chemo-attractant. After 24 hours, cells in the lower side of the chamber were fixed, stained, photographed in 100× magnification (top panel), and counted and represented in the form of the bar graph (bottom panel). P-values were determined by Student's t-test.
RNA Extraction and qPCR. […] All quantifications were normalized to endogenous GAPDH.

[2] = test system: BRCA2-null LNCaP cells; test: MTT cell growth of BRCA2 CRISPR-edited LNCaP cells with PARP inhibitors or cisplatin; conditions: BRCA2 knockout LNCaP vs control gRNA (scr) cells; complete medium, 6 days (FIG. 7C)
Method: Cells infected with scrambled (scr) gRNA were used as control. Equal amount of proteins was loaded in WedgeWell 6% gel and western blot was performed. ˜400 kDa BRCA2 band is indicated by arrow. GAPDH served as loading controls for western blot and qPCR. […] Genotypes are detected by PCR amplification followed by being treated with T7 endonuclease. Wt and mutant BRCA2 are indicated by red and green arrows, respectively. […] Equivalent volume of DMSO was used as placebo treatment. Cell growth was measured by MTT assay (see Example 1); SD, P-values determined by Student's t-test. *P<0.05, **P<0.01, ***P<0.001. FIGS. 7D-7E show the growth curve (FIG. 7D) and a bar graph (FIG. 7E) representing the cell growth of LNCaP BRCA2 CRISPR-edited and non-targeting control gRNA (scr) infected cells in complete medium supplemented with enzalutamide (ENZ; indicated concentration) for 7 days or charcoal-stripped medium (CSS) for 5 days, respectively. Equivalent volume of DMSO was used as placebo treatment. Cell growth was measured by crystal violet staining assay (see Example 1) (±SD); P-values determined by Student's t-test. […] Equivalent volume of DMSO was used as placebo treatment. Cell growth was measured by MTT assay (see Example 1) (±SD); P-values determined by Student's t-test. […] Total RNA was isolated, and BRCA2 mRNA was analyzed by qPCR. […] Cell growth was measured by MTT assay; SD, P-values determined by Student's t-test.
To generate BRCA2 knockout RWPE1 cells, BRCA2 gRNA2 was cloned into LentiCRISPRv2-GFP backbone which constitutively expresses Cas9 and GFP. Lentiviral infected cells were selected by FACS sorting for GFP positive cells (twice) and analyzed by western blot. […] Loss of BRCA2 in the pooled populations of LNCaP cells was analyzed by western blot using BRCA2-specific antibodies and this pooled population of cells was used for the following experiments. […]
Cell Proliferation Assay by MTT, BrdU and Crystal Violet. […] MTT crystals were dissolved in isopropanol and absorbance was measured in a BioTek plate reader at […] and represented graphically.

[3] = test system: 22RV1 cells; test: MTT cell growth with PARPi or cisplatin; conditions: 22RV1, BRCA2 T3033Nfs*11, RB1-wt; cisplatin 500 nM, talazoparib 5 nM, 6 days (FIG. 11D)
Method: The ploidy of each cell line is indicated. […] Equivalent volume of DMSO was used as placebo treatment. Cell growth was measured by MTT assay (see Example 1); SD, each point indicates the MTT count of each well of 96-well plate, P-values determined by Student's t-test. **P<0.01, ****P<0.0001. […] Cell Proliferation Assay by MTT, BrdU and Crystal Violet. For MTT assay, cells were plated at 2.5×10^3 per well in 96-well plates in complete media (10% FBS) or media supplemented with 10% charcoal-stripped serum. Cells were either treated with DMSO or with indicated inhibitors. After indicated times, cells were incubated in 0.5 mg/mL MTT (Invitrogen) for 1 hour at 37° C. MTT crystals were dissolved in isopropanol and absorbance was measured in a BioTek plate reader at […] and represented graphically.

Row | SMILES | SLUG mRNA (qPCR) [1] | sensitivity (cell growth, MTT) [2] | sensitivity (cell growth, MTT) [3]
1 | C[C@]1(O)CC[C@H]2[C@@H]3CCC4=CC(=O)CCC4=C3C=C[C@@]21C [R1881] | significantly increased | – | –
2 | N.N.[Cl][Pt][Cl] [cisplatin] | – | enhanced sensitivity | sensitivity
